In ChEMBL document CHEMBL5724914, “Linking interpersonal differences in gut microbiota composition and drug biotransformation activity” (2024):

Key:
[1] = human gut metagenome, 24 h, 2 µM
[2] = (§1) The drug is tested on Z-016 corresponding to mouse gut metagenome with ENA study accession number: PRJEB37062 and ENA sample accession number: ERS12561815 for biotransformation under anaerobic condition. The drug concentrations were measured over 9 timepoints collected between 0 and 24 hours of incubation by liquid-chromatography-coupled mass spectrometry (LC–MS); conditions: 2 µM
[3] = as §1, with “Z-008” for “Z-016”, “to” for “to mouse gut”, “ERS12561808” for “ERS12561815”; conditions: 2 µM
[4] = human gut metagenome, 24 h, 2 µM; remark: listed apart in the source
[5] = as §1, with “Z-003” for “Z-016”, “pig” for “mouse”, “ERS12561803” for “ERS12561815”; conditions: 2 µM
[6] = human gut metagenome, 24 h, 2 µM; remark: listed apart in the source
[7] = human gut metagenome, 24 h, 2 µM; remark: listed apart in the source
[8] = as §1, with “Z-004” for “Z-016”, “to” for “to mouse gut”, “ERS12561804” for “ERS12561815”; conditions: 2 µM
[9] = as §1, with “WLS-240” for “Z-016”, “human” for “mouse”, “ERS12561773” for “ERS12561815”; conditions: 2 µM
[10] = as §1, with “WLS-038” for “Z-016”, “human” for “mouse”, “ERS12561745” for “ERS12561815”; conditions: 2 µM
[11] = human gut metagenome, 24 h, 2 µM; remark: listed apart in the source
[12] = human gut metagenome, 24 h, 2 µM; remark: listed apart in the source
[13] = human gut metagenome, 24 h, 2 µM; remark: listed apart in the source
[14] = human gut metagenome, 24 h, 2 µM; remark: listed apart in the source
[15] = human gut metagenome, 24 h, 2 µM; remark: listed apart in the source
[16] = as §1, with “WLS-077” for “Z-016”, “human” for “mouse”, “ERS12561750” for “ERS12561815”; conditions: 2 µM
[17] = as §1, with “Z-025” for “Z-016”, “rabbit” for “mouse”, “ERS12561824” for “ERS12561815”; conditions: 2 µM
[18] = as §1, with “Z-022” for “Z-016”, “ERS12561821” for “ERS12561815”; conditions: 2 µM
[19] = human gut metagenome, 24 h, 2 µM; remark: listed apart in the source
[20] = as §1, with “WLS-350” for “Z-016”, “human” for “mouse”, “ERS12561789” for “ERS12561815”; conditions: 2 µM
Also: call rule not given here.

Compound | Bacterial Biotransformation [1] | Bacterial Biotransformation [2] | Bacterial Biotransformation [3] | Bacterial Biotransformation [4] | Bacterial Biotransformation [5] | Bacterial Biotransformation [6] | Bacterial Biotransformation [7] | Bacterial Biotransformation [8] | Bacterial Biotransformation [9] | Bacterial Biotransformation [10] | Bacterial Biotransformation [11] | Bacterial Biotransformation [12] | Bacterial Biotransformation [13] | Bacterial Biotransformation [14] | Bacterial Biotransformation [15] | Bacterial Biotransformation [16] | Bacterial Biotransformation [17] | Bacterial Biotransformation [18] | Bacterial Biotransformation [19] | Bacterial Biotransformation [20]
COc1ccc(C(CN(C)C)C2(O)CCCCC2)cc1 (stereo not given) [VENLAFAXINE] | Compound NOT metabolized | Compound NOT metabolized | Compound NOT metabolized | Compound NOT metabolized | Compound NOT metabolized | Compound NOT metabolized | Compound NOT metabolized | Compound NOT metabolized | Compound metabolized | Compound NOT metabolized | Compound NOT metabolized | Compound NOT metabolized | Compound NOT metabolized | Compound NOT metabolized | Compound NOT metabolized | Compound NOT metabolized | Compound NOT metabolized | Compound NOT metabolized | Compound NOT metabolized | Compound NOT metabolized
CCOC(=O)C1=C[C@]2(CC)CCCN3CCc4c(n1c1ccccc41)[C@@H]32 [VINPOCETINE] | Compound metabolized | Compound metabolized | Compound NOT metabolized | Compound NOT metabolized | Compound metabolized | Compound metabolized | Compound NOT metabolized | Compound NOT metabolized | Compound metabolized | Compound NOT metabolized | Compound metabolized | Compound metabolized | Compound metabolized | Compound NOT metabolized | Compound metabolized | Compound metabolized | Compound NOT metabolized | Compound metabolized | Compound metabolized | Compound metabolized
C[C@@H](c1ncncc1F)[C@](O)(Cn1cncn1)c1ccc(F)cc1F [VORICONAZOLE] | Compound metabolized | Compound metabolized | Compound NOT metabolized | Compound metabolized | Compound metabolized | Compound metabolized | Compound metabolized | Compound NOT metabolized | Compound metabolized | Compound metabolized | Compound metabolized | Compound metabolized | Compound metabolized | Compound NOT metabolized | Compound metabolized | Compound metabolized | Compound NOT metabolized | Compound metabolized | Compound metabolized | Compound metabolized
CCN(C(C)=O)c1cccc(-c2ccnc3c(C#N)cnn23)c1 [ZALEPLON] | Compound metabolized | Compound metabolized | Compound NOT metabolized | Compound metabolized | Compound metabolized | Compound metabolized | Compound metabolized | Compound metabolized | Compound metabolized | Compound metabolized | Compound metabolized | Compound metabolized | Compound metabolized | Compound metabolized | Compound metabolized | Compound metabolized | Compound metabolized | Compound NOT metabolized | Compound metabolized | Compound metabolized
